According to patent US9839642B2, “Beta-tetrazolyl-propionic acids as metallo-beta-lactamase inhibitors” (priority 2014, dated 2017):
Read-outs that look alike come from different tables or passages of the source.

Assays:
[1] = system: Klebsiella pneumoniae expressing VIM-1 (IHMA599644); test: Antibiotic potentiation activity: synergistic concentration (MITC95) with imipenem, growth by OD600; type: cell-based
Method in brief: (§1)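 MITC95 = lowest inhibitor concentration giving 95% growth inhibition, read by absorbance after 22–24 h at 35° C. Compound range 200 μM to 0.195 μM, imipenem fixed at 1 or 4 μg/ml, bacteria in 1.1×CAMHB from saline suspension diluted 1:100.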

[2] = system: Escherichia coli expressing NDM-1 (CLB30016); test: as above; type: cell-based
Method in brief: as §1

[3] = system: Serratia marcescens expressing IMP-1 (CL5741); test: as above; type: cell-based
Method in brief: as §1

NDM-1 = NDM-1 (Klebsiella pneumoniae, UniProt C7C422); test: Enzyme activity: determination of IC50, fluorescence assay with CCF2-FA substrate; type: biochemical; details: CCF2-FA 1.25 μM, 2 hours at 25° C., read-out: NDM1 IC50
NDM-1, sequence (C7C422 29-270, looked up, species assumed): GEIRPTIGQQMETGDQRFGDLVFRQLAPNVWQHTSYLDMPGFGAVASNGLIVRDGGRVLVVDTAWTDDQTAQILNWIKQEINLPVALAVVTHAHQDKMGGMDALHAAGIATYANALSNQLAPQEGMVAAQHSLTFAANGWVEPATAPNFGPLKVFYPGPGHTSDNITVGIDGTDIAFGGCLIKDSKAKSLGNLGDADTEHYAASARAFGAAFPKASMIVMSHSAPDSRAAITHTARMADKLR
Method in brief: (§2)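 100 mM KH2PO4 pH 7 + 0.005% Tween-20 + 10 μM ZnSO4; CCF2-FA 1.25 μM; NDM-1 1 pM, IMP-1 2 pM, VIM-1 30 pM; cpd 20–0.00063 μM final, DMSO 1:50. 2 h, 25° C. Ex 405/em 460 nm; IC50, 4-param fit.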

IMP-1 = IMP-1 (Serratia marcescens, UniProt P52699); test: as above; type: biochemical; details: CCF2-FA 1.25 μM, 2 hours at 25° C., read-out: IMP1 IC50
IMP-1, sequence (P52699 19-246, looked up, species assumed): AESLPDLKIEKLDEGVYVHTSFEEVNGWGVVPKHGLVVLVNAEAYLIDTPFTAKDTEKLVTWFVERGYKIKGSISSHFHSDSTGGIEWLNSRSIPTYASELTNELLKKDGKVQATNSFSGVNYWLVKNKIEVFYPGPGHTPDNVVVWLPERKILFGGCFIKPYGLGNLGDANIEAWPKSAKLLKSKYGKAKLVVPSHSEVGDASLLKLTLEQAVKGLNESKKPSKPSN
Method in brief: as §2

VIM-1 = VIM-1 (Pseudomonas aeruginosa, UniProt A0A0F7KYQ8); test: as above; type: biochemical; details: CCF2-FA 1.25 μM, 2 hours at 25° C., read-out: VIM1 IC50
Method in brief: as §2

[4] = 95% inhibition of bacterial growth, strain IHMA599644
[5] = 95% inhibition of bacterial growth, strain CLB30016
[6] = 95% inhibition of bacterial growth, strain CL5741

Row | SMILES | VIM1 KP599644 MITC95 [1, 4] [µM] | NDM1 EC30016 MITC95 [2, 5] [µM] | IMP1 SM5741 MITC95 [3, 6] [µM] | IC50 (NDM-1; enzyme 1 pM) [nM] | IC50 (IMP-1; enzyme 2 pM) [nM] | IC50 (VIM-1; enzyme 30 pM) [nM] | VIM1 KP599644 MITC95 ([1]; K. pneumoniae IHMA599644 (VIM-1), 95% inhibition of growth) [µM] | NDM1 EC30016 MITC95 ([2]; E. coli CLB30016 (NDM-1), 95% inhibition of growth) [µM] | IMP1 SM5741 MITC95 ([3]; S. marcescens CL5741 (IMP-1), 95% inhibition of growth) [µM] | IC50 (NDM-1; NDM-1 enzyme 1 pM) [nM] | IC50 (IMP-1; IMP-1 enzyme 2 pM) [nM] | IC50 (VIM-1; VIM-1 enzyme 30 pM) [nM]
1 | CCC[C@H](C(=O)O)[C@H](Cc1ccc(NCC(=O)N(C)C)cc1)c1nn[nH]n1 [Example 218, (2S)-2-[(1S)-2-(4-{[2-(dimethylamino)-2-oxoethyl]amino}phenyl)-1-(2H-tetrazol-5-yl)ethyl]pentanoic acid] | 50 | 31 | 25 | 40 | 460 | 21 |  |  |  |  |  | 
2 | CCC[C@H](C(=O)O)[C@H](Cc1ccc(NCCN2CCN(C(C)C)CC2)cc1)c1nn[nH]n1 [Example 219, (2S)-2-[(1S)-2-[4-({2-[4-(1-methylethyl)piperazin-1-yl]ethyl}amino)phenyl]-1-(2H-tetrazol-5-yl)ethyl]pentanoic acid] | 100 | 25 | 25 | 210 | 1000 | 93 |  |  |  |  |  | 
3 | CCC[C@H](C(=O)O)[C@H](Cc1ccc(NCCN2CCCC(O)C2)cc1)c1nn[nH]n1 (stereo partly drawn) [Example 220, (2S)-2-[(1S)-2-(4-{[2-(3-hydroxypiperidin-1-yl)ethyl]amino}phenyl)-1-(2H-tetrazol-5-yl)ethyl]pentanoic acid] | 50 | 25 | 50 | 360 | 1600 | 75 |  |  |  |  |  | 
4 | CCC[C@H](C(=O)O)[C@H](Cc1ccc(NCCn2ccnn2)cc1)c1nn[nH]n1 [Example 221, (2S)-2-[(1S)-1-(2H-tetrazol-5-yl)-2-(4-{[2-(1H-1,2,3-triazol-1-yl)ethyl]amino}phenyl)ethyl]pentanoic acid] | 100 | 31 | 16 | 84 | 220 | 27 |  |  |  |  |  | 
5 | CCC[C@H](C(=O)O)[C@H](Cc1ccc(NC(C)CN)cc1)c1nn[nH]n1 (stereo partly drawn) [Example 222, (2S)-2-[(1S)-2-{4-[(2-amino-1-methylethyl)amino]phenyl}-1-(2H-tetrazol-5-yl)ethyl]pentanoic acid] | 25 | 18.8 | 25 | 710 | 1700 | 9.1 |  |  |  |  |  | 
6 | CCC[C@H](C(=O)O)[C@H](Cc1ccc(NC2CCCN(CCC)C2)cc1)c1nn[nH]n1 (stereo partly drawn) [Example 223, (2S)-2-[(1S)-2-{4-[(1-propylpiperidin-3-yl)amino]phenyl}-1-(2H-tetrazol-5-yl)ethyl]pentanoic acid] | 75 | 38 | 25 | 500 | 1300 | 71 |  |  |  |  |  | 
7 | CCC[C@H](C(=O)O)[C@H](Cc1ccc(NC(C)CN(C)C)cc1)c1nn[nH]n1 (stereo partly drawn) [Example 224, (2S)-2-[(1S)-2-(4-{[2-(dimethylamino)-1-methylethyl]amino}phenyl)-1-(2H-tetrazol-5-yl)ethyl]pentanoic acid] | 50 | 25 | 18.8 | 1000 | 1100 | 82 |  |  |  |  |  | 
8 | CCC[C@H](C(=O)O)[C@H](Cc1ccc(N2CCN(CCO)CC2)cc1)c1nn[nH]n1 [Example 225, (2S)-2-[(1S)-2-{4-[4-(2-hydroxyethyl)piperazin-1-yl]phenyl}-1-(2H-tetrazol-5-yl)ethyl]pentanoic acid] | 50 | 25 | 12.5 | 110 | 280 | 66 |  |  |  |  |  | 
9 | CCC[C@H](C(=O)O)[C@H](Cc1ccc(N2CCN(c3ccccc3)CC2)cc1)c1nn[nH]n1 [Example 226, (2S)-2-[(1S)-2-[4-(4-phenylpiperazin-1-yl)phenyl]-1-(2H-tetrazol-5-yl)ethyl]pentanoic acid] | >200 | 38 | 3.1 | 20 | 39 | 66 |  |  |  |  |  | 
10 | CCC[C@H](C(=O)O)[C@H](Cc1ccc(N2CCN(c3ccncc3)CC2)cc1)c1nn[nH]n1 [Example 227, (2S)-2-[(1S)-2-[4-(4-pyridin-4-ylpiperazin-1-yl)phenyl]-1-(2H-tetrazol-5-yl)ethyl]pentanoic acid] | 75 | 16 | 12.5 | 54 | 380 | 51 |  |  |  |  |  | 
11 | CCC[C@H](C(=O)O)[C@H](Cc1ccc(N2CCN(C(C)=O)CC2)cc1)c1nn[nH]n1 [Example 228, (2S)-2-[(1S)-2-[4-(4-acetylpiperazin-1-yl)phenyl]-1-(2H-tetrazol-5-yl)ethyl]pentanoic acid] | 200 | 75 | 16 | 33 | 220 | 15 |  |  |  |  |  | 
12 | CCC[C@H](C(=O)O)[C@H](Cc1ccc(N2CCC[C@@H](N)C2)cc1)c1nn[nH]n1 [Example 229, (2S)-2-[(1S)-2-{4-[(3R)-3-aminopiperidin-1-yl]phenyl}-1-(2H-tetrazol-5-yl)ethyl]pentanoic acid] | 25 | 12.5 | 25 | 370 | 1200 | 25 |  |  |  |  |  | 
13 | CCC[C@H](C(=O)O)[C@H](Cc1ccc(N2CCC[C@H](N)C2)cc1)c1nn[nH]n1 [Example 230, (2S)-2-[(1S)-2-{4-[(3S)-3-aminopiperidin-1-yl]phenyl}-1-(2H-tetrazol-5-yl)ethyl]pentanoic acid] | 25 | 31 | 25 | 300 | 1100 | 25 |  |  |  |  |  | 
14 | CCC[C@H](C(=O)O)[C@H](Cc1ccc(N2CCN(C)CC2)cc1)c1nn[nH]n1 [Example 231, (2S)-2-[(1S)-2-[4-(4-methylpiperazin-1-yl)phenyl]-1-(2H-tetrazol-5-yl)ethyl]pentanoic acid] | 50 | 18.8 | 18.8 | 160 | 450 | 69 |  |  |  |  |  | 
15 | CCC[C@H](C(=O)O)[C@H](Cc1ccc(N2CCN3CCCC3C2)cc1)c1nn[nH]n1 (stereo partly drawn) [Example 232, (2S)-2-[(1S)-2-[4-(hexahydropyrrolo[1,2-a]pyrazin-2(1H)-yl)phenyl]-1-(2H-tetrazol-5-yl)ethyl]pentanoic acid] | 50 | 12.5 | 12.5 | 180 | 420 | 90 |  |  |  |  |  | 
16 | CC(C)(C)[C@H](C(=O)O)[C@H](Cc1ccccc1)c1nnn[nH]1 [Example 258, (2R,3S)-2-(tert-butyl)-4-phenyl-3-(1H-tetrazol-5-yl)butanoic acid] |  |  |  |  |  |  | 100 | 11 | 2.3 | 91 | 35 | 100
